Measured values: PubChem BioAssay (NCI)
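Where inhibition never reached the appropriate level, the endpoint shown equals the highest concentration tested. Otherwise, values were interpolated linearly from a five-concentration, 48-hour dose response in 96-well plates. TGI denotes the concentration required for complete inhibition of growth.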

Columns and labels:
Test in all cases: NCI-60 cell line screen, 48 h
LXFL 529 NSCLC = system: LXFL 529 NSCLC
PC-3 prostate = system: PC-3 prostate
DLD-1 colon = system: DLD-1 colon
MDA-MB-435 = system: MDA-MB-435
SNB-78 CNS = system: SNB-78 CNS
XF 498 CNS = system: XF 498 CNS
DMS 273 small cell lung = system: DMS 273 small cell lung
MCF7 breast = system: MCF7 breast
HS 578T breast = system: HS 578T breast
T-47D breast = system: T-47D breast

Measured: TGI

COc1cc(/C=C(\C#N)C(N)=C(C#N)C#N)cc(O)c1O
> 100 µM: all assays above
